# Data published in BindingDB's records for patent US20240139197 (The Wistar Institute of Anatomy and Biology, 2024).
# Legend:
# Test in all cases: Biochemical Assay
# [1] = target: Lysine-specific demethylase 5A (Homo sapiens, UniProt P29375)
# [2] = target: T1, Lysine-specific demethylase 4C (Homo sapiens, UniProt Q9H3R0)
# T1 sequence (Q9H3R0 whole entry): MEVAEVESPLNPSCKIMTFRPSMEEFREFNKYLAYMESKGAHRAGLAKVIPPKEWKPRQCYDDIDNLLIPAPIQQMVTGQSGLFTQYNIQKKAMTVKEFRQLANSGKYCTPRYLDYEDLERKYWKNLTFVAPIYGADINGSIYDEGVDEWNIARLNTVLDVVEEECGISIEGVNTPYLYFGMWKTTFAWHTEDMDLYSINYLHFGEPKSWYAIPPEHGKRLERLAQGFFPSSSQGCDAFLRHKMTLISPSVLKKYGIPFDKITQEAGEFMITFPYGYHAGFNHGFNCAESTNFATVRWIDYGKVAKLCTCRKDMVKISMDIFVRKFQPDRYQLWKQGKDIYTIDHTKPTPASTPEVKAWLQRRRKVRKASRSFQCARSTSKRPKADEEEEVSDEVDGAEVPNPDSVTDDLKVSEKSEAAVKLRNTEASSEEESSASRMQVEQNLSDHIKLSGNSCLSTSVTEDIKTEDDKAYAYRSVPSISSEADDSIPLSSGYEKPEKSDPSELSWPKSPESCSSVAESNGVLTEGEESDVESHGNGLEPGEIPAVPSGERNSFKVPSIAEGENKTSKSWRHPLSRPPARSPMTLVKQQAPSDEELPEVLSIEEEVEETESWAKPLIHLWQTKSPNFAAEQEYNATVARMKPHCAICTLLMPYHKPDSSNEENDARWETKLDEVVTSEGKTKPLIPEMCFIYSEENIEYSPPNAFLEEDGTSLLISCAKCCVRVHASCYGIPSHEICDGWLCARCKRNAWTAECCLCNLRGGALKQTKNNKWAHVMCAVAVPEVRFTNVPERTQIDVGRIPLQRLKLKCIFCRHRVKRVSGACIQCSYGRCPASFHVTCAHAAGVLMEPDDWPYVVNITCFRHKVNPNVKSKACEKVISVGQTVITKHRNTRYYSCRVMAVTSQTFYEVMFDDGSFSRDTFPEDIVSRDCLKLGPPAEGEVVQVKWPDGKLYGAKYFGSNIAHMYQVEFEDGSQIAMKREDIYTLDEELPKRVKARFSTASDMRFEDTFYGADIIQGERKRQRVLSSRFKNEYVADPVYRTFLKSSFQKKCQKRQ
# [3] = target: Lysine-specific demethylase 5B (Homo sapiens, UniProt Q9UGL1)
# Lysine-specific demethylase 5B, sequence (Q9UGL1 whole entry): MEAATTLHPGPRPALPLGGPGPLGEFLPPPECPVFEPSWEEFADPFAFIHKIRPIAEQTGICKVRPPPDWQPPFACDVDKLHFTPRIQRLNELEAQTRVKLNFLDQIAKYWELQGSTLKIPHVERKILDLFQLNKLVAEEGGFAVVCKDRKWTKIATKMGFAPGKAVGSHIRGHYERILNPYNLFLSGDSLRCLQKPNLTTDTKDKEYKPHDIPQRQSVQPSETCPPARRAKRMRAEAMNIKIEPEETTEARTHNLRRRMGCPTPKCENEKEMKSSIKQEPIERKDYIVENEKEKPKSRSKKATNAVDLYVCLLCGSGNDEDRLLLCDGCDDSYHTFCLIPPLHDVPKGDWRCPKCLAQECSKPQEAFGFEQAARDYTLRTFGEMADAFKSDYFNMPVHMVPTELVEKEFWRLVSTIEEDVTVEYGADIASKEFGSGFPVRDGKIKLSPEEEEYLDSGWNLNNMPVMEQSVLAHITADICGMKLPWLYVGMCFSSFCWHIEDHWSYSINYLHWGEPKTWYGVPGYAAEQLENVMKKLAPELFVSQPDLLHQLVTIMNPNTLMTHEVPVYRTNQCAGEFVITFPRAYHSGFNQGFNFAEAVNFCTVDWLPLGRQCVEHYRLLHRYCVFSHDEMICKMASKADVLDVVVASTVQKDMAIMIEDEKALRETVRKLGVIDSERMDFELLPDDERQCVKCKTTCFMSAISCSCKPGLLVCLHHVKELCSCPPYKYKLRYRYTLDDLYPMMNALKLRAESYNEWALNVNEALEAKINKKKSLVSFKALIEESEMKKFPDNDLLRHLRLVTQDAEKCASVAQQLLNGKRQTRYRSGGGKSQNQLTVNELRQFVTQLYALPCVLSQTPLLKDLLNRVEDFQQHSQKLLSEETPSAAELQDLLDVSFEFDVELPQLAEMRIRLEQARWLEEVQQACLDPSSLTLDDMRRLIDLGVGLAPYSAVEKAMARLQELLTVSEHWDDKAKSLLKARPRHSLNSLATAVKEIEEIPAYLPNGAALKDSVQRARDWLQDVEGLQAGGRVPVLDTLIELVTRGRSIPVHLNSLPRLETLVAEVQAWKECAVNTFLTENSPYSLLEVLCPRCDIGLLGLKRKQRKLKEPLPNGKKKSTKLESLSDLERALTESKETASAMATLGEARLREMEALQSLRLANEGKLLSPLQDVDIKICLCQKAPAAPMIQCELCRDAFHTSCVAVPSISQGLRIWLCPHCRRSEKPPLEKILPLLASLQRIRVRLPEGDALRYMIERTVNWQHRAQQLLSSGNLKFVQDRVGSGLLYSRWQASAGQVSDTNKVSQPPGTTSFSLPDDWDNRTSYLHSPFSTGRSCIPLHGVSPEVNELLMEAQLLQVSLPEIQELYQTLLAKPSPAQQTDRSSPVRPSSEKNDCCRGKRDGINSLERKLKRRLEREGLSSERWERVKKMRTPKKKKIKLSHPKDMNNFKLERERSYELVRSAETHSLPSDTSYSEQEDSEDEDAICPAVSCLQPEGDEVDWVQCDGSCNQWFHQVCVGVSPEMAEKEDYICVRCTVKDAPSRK
# Lysine-specific demethylase 5A, sequence (P29375 whole entry): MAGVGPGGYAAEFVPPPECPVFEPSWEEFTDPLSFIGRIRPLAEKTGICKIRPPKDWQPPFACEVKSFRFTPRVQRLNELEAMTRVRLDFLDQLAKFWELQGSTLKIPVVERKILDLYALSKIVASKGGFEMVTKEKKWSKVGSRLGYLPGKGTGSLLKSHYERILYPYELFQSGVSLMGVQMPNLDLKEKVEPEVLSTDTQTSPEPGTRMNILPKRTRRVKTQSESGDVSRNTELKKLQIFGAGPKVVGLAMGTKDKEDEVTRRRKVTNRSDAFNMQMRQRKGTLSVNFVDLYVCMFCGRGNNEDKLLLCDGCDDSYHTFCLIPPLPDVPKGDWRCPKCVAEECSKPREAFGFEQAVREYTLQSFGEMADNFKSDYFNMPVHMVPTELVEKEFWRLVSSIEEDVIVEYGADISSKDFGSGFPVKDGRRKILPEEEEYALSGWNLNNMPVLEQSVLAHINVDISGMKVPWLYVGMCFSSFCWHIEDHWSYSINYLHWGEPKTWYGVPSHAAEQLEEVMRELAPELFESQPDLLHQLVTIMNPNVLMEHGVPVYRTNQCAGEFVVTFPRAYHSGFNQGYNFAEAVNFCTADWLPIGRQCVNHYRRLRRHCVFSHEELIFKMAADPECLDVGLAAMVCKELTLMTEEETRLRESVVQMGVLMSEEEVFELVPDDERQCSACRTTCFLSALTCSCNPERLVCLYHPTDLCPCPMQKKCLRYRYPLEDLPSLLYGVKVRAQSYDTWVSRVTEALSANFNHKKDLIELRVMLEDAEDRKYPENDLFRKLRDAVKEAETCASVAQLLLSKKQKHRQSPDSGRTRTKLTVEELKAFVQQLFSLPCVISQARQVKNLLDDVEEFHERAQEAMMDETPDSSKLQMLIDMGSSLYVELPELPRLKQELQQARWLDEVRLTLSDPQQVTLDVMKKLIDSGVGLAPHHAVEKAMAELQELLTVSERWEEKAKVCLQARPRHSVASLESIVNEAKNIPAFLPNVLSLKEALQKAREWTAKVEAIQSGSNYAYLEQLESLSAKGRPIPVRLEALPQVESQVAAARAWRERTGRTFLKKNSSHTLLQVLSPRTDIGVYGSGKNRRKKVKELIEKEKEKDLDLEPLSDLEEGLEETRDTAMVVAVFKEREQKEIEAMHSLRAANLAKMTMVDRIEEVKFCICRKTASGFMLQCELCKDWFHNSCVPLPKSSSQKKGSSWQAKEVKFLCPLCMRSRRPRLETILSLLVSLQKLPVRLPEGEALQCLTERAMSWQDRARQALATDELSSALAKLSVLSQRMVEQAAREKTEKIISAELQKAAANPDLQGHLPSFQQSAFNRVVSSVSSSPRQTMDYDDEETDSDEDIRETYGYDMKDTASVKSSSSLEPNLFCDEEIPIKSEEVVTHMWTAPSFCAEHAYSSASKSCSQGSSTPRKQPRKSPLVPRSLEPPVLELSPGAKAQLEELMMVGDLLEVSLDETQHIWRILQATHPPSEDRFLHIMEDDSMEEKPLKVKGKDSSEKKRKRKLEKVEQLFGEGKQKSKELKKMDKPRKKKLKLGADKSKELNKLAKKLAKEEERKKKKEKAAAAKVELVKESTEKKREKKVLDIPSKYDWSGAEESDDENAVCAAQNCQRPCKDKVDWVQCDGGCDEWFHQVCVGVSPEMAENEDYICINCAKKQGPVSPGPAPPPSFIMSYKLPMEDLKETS
IC50 [1],IC50 [2],IC50 [3],Structure (SMILES)
170 nM,–,–,"CC(C)c1c[nH]c2c(C#N)cnn2c1=O [US20240139197, Compound 7]"
14 nM,54 nM,4 nM,"Bc1cc(Cl)ccc1COc1ccnn1-c1cc(C(=O)O)ccn1 [US20240139197, Compound 21]"
–,–,3 nM,"COc1cc(Cl)ccc1COc1ccnn1-c1cc(C(=O)O)ccn1 [US20240139197, Compound 34]"
18 nM,–,–,"CCOc1cc(Cl)ccc1COc1ccnn1-c1cc(C(=O)O)ccn1 [US20240139197, Compound 35]"
25 nM,–,36 nM,"O=C(O)c1ccnc(-n2nccc2OCc2ccc(Cl)cc2OCC2CC2)c1 [US20240139197, Compound 36]"
